Each molecule was assayed against T1, full length active recombinant SYK enzyme (Homo sapiens, UniProt P43405) (assay: Inhibition of Syk tyrosine phosphorylation activity (LANCE TR-FRET kinase assay)). Settings: 1 nM active SYK enzyme, 550 nM SYK-substrate, 100 μM ATP, 1 hour at room temperature.
T1 construct: full length active recombinant SYK enzyme (Millipore, CA); purchased Millipore, CA
Assay type: biochemical
Method: The in vitro and in vivo human Syk activities of the inventive compounds can be determined by various procedures known in the art, such as a test for their ability to inhibit the activity of human plasma Syk. […] The IC50 value is the concentration (in nM) of the compound required to provide 50% inhibition of human Syk proteolytic activity.
An in vitro assay for detecting and measuring inhibition activity against Syk is as follows:
SYK tyrosine phosphorylation activity is measured using the LANCE™ Technology developed by Perkin Elmer Life and Analytical Sciences (Boston, Mass.). LANCE™ refers to homogeneous time resolved fluorometry applications using techniques such as time-resolved fluorescence resonance energy transfer assay (TR-FRET) (see generally for procedures in Perkin Elmer Application Note—How to Optimize a Tyrosine Kinase Assay Using Time Resolved Fluorescence-Based LANCE Detection, wwww.perkinelmer.com/lifesciences). The assay principle involves detection of a phosphorylated substrate using energy transfer from a phosphospecific europium-labeled antibody to streptavidin-allophycocyanin as an acceptor.
Molecules are reconstituted in 30% DMSO and serially diluted 1:3 with the final dilution containing DMSO in the absence of the candidate molecule. The final DMSO concentration in the assay is 3%. Kinase assays are performed as a two part reaction. The first reaction is a kinase reaction and which comprises of a candidate molecule, full length active recombinant SYK enzyme (Millipore, CA) and biotin-labeled SYK-specific substrate biotin-DEEDYESP-OH. The second reaction involves termination of the kinase reaction and the simultaneous addition of the detection reagents-europium-labeled anti-phosphotyrosine reagent (Eu-W1024-PY100, Perkin Elmer, Boston, Mass.) and Streptavidin-Allophycocyanin detection reagent (SA-APC, Prozyme, CA). The kinase reaction is performed in a black U-bottom 96-well microtitre plate. The final reaction volume is 50 μL and contains a final concentration of 1 nM active SYK enzyme, 550 nM SYK-substrate, and 100 μM ATP diluted in a buffer containing 50 mM Tris pH 7.5, 5 mM MgCl2, and 1 mM DTT. The reaction is allowed to proceed for 1 hour at room temperature. The quench buffer contains 100 mM Tris pH 7.5, 300 mM NaCl2, 20 mM EDTA, 0.02% Brij35, and 0.5% BSA. The detection reagents are added to the reaction mixture at the following dilutions-1:500 for Eu-W1024-PY100 and 1:250 for SA-APC. The kinase reaction is terminated by the addition of 50 μL quench buffer containing the detection reagents. The detection is allowed to proceed for 1 hr at room temperature. Detection of the phosphorlated substrate in the absence and presence of inhibitors is measured in the TR-FRET instrument, Analyst HT (Molecular Probes, Sunnyvale, Calif.) and the condition for measurements are set up using CriterionHost Release 2.0 (Molecular Probes, Sunnyvale, Calif.). The settings used are a follows: excitation 360 nm, emission 665-7.5 nm, beam splitter 350 nm 50/50, flash 100 pulses, delay 60 us, integration 400 us, z-height 2 mm. Inhibition of SYK-tyrosine kinase activity is calculated as the maximum response observed in the presence of inhibitor, compared to that in the absence of inhibitor. IC50s were derived by non-linear regression analysis.
For `CC[C@@H](Nc1cnc(C(N)=O)c(Nc2cc(C3CC3)ns2)c1)C(N)=O` [Example 38, (R)-5-(1-amino-1-oxobutan-2-ylamino)-3-(3-cyclopropylisothiazol-5-ylamino)picolinamide], the IC50 was 0.001 to 0.01 µM. In the case of `COC[C@@H](Nc1cnc(C(N)=O)c(Nc2cc(C)ns2)c1)C(N)=O` [Example 48, (R)-5-(1-amino-3-methoxy-1-oxopropan-2-ylamino)-3-(3-methylisothiazol-5-ylamino)picolinamide], the IC50 is reported as 0.01 to 0.1 µM. `CC(C)C[C@@H](Nc1cnc(C(N)=O)c(Nc2cc(-c3ccncc3)no2)c1)C(N)=O` [Example 47, (R)-5-(1-amino-4-methyl-1-oxopentan-2-ylamino)-3-(3-(pyridin-4-yl)isoxazol-5-ylamino)picolinamide] gave an IC50 of 0.001 to 0.01 µM. `Cc1cc(Nc2cc(N[C@@H]3CCOC[C@@H]3N)cnc2C(N)=O)sn1` [Example 23, 5-((3R,4R)-3-aminotetrahydro-2H-pyran-4-ylamino)-3-(3-methylisothiazol-5-ylamino)picolinamide] showed an IC50 of 0.001 to 0.01 µM. `NC(=O)c1ncc(N[C@@H]2CCOC[C@@H]2N)cc1Nc1cc(-c2ccncc2)no1` [Example 52, 5-((3R,4R)-3-aminotetrahydro-2H-pyran-4-ylamino)-3-(3-(pyridin-4-yl)isoxazol-5-ylamino)picolinamide] showed an IC50 of 0.01 to 0.1 µM. With `NC(=O)c1ncc(N[C@@H]2CCCC[C@@H]2N)cc1Nc1cc(-c2cccnc2)no1` [Example 50, 5-((1R,2S)-2-aminocyclohexylamino)-3-(3-(pyridin-3-yl)isoxazol-5-ylamino)picolinamide] the IC50 was 0.01 to 0.1 µM. With `CC[C@@H](Nc1cnc(C(N)=O)c(Nc2cnc3cccnc3c2)c1)C(N)=O` [Example 54, (R)-3-(1,5-naphthyridin-3-ylamino)-5-(1-amino-1-oxobutan-2-ylamino)picolinamide] the IC50 was 0.1 to 1 µM. For `NC(=O)c1ncc(N[C@@H]2CCCC[C@@H]2N)cc1Nc1cccc(-c2ncco2)c1` [Example 55, 5-(((1R,2S)-2-aminocyclohexyl)amino)-3-((3-(oxazol-2-yl)phenyl)amino)picolinamide], the IC50 was 0.01 to 0.1 µM. `Cn1cc(Nc2cc(N[C@@H]3CCCC[C@@H]3N)cnc2C(N)=O)cn1` [Example 24, 5-((1R,2S)-2-aminocyclohexylamino)-3-(1-methyl-1H-pyrazol-4-ylamino)picolinamide] showed an IC50 of 0.1 to 1 µM. `Cc1cc(Nc2cc(N[C@@H](C(N)=O)C(C)C)cnc2C(N)=O)sn1` [Example 7, (R)-5-(1-amino-3-methyl-1-oxobutan-2-ylamino)-3-(3-methylisothiazol-5-ylamino)picolinamide] showed an IC50 of 0.01 to 0.1 µM. `CC(C)(C)C[C@@H](Nc1cnc(C(N)=O)c(Nc2cc(F)c3ncccc3c2)c1)C(N)=O` [Example 40, (R)-5-(1-amino-4,4-dimethyl-1-oxopentan-2-ylamino)-3-(8-fluoroquinolin-6-ylamino)picolinamide] showed an IC50 of 0.01 to 0.1 µM. `CC(C)C[C@@H](Nc1cnc(C(N)=O)c(Nc2ccc3ncccc3c2)c1)C(N)=O` [Example 16, (R)-5-(1-amino-4-methyl-1-oxopentan-2-ylamino)-3-(quinolin-6-ylamino)picolinamide] was tested, and the IC50 was 0.01 to 0.1 µM. `CC[C@@H](Nc1cnc(C(N)=O)c(Nc2cc(C)ns2)c1)C(N)=O` [Example 5, (R)-5-(1-amino-1-oxobutan-2-ylamino)-3-(3-methylisothiazol-5-ylamino)picolinamide] was tested, and the IC50 was 0.01 to 0.1 µM. For `NC(=O)c1ncc(N[C@@H]2CCCC[C@@H]2N)cc1Nc1cc(-c2ccccc2)no1` [Example 8, 5-((1R,2S)-2-aminocyclohexylamino)-3-(3-phenylisoxazol-5-ylamino)picolinamide], the IC50 was 0.001 to 0.01 µM. In the case of `Cc1cc(Nc2cc(N[C@H](CC3CCCCC3)C(N)=O)cnc2C(N)=O)sn1` [Example 18, (R)-5-(1-amino-3-cyclohexyl-1-oxopropan-2-ylamino)-3-(3-methylisothiazol-5-ylamino)picolinamide], the IC50 is reported as 0.01 to 0.1 µM. Molecule `Cc1cc(Nc2cc(N[C@@H]3CCCC(F)(F)[C@@H]3N)cnc2C(N)=O)sn1` [Example 2, 5-((1R,2R)-2-amino-3,3-difluorocyclohexylamino)-3-(3-methylisothiazol-5-ylamino)picolinamide] has an IC50 of 0.01 to 0.1 µM. Molecule `Cc1cc(Nc2cc(N[C@@H]3CCCC[C@@H]3N)cnc2C(N)=O)sn1` [Example 4, 5-((1R,2S)-2-aminocyclohexylamino)-3-(3-methylisothiazol-5-ylamino)picolinamide] has an IC50 of 0.001 to 0.01 µM. `Cc1cc(Nc2cc(N[C@H](CC(F)(F)F)C(N)=O)cnc2C(N)=O)sn1` [Example 44, (R)-5-(1-amino-4,4,4-trifluoro-1-oxobutan-2-ylamino)-3-(3-methylisothiazol-5-ylamino)picolinamide] showed an IC50 of less than 0.001 µM. Molecule `NC(=O)c1ncc(N[C@@H]2CCCC[C@@H]2N)cc1Nc1cncs1` [Example 56, 5-(((1R,2S)-2-aminocyclohexyl)amino)-3-(thiazol-5-ylamino)picolinamide] has an IC50 greater than 1 µM. `CC(C)C[C@@H](Nc1cnc(C(N)=O)c(Nc2nc(-c3ccccc3)no2)c1)C(N)=O` [Example 30, (R)-5-((1-amino-4-methyl-1-oxopentan-2-yl)amino)-3-((3-phenyl-1,2,4-oxadiazol-5-yl)amino)picolinamide] gave an IC50 of 0.01 to 0.1 µM. `Cc1cc(Nc2cc(N[C@H](CCS(C)(=O)=O)C(N)=O)cnc2C(N)=O)sn1` [Example 45, (R)-5-(1-amino-4-(methylsulfonyl)-1-oxobutan-2-ylamino)-3-(3-methylisothiazol-5-ylamino)picolinamide] gave an IC50 of 0.01 to 0.1 µM. With `Cc1cc(Nc2cc(N[C@H]3CC[C@@H](N)CC3)cnc2C(N)=O)sn1` [Example 26, 5-((1S,4S)-4-aminocyclohexylamino)-3-(3-methylisothiazol-5-ylamino)picolinamide] the IC50 was 0.01 to 0.1 µM. With `CCc1cc(Nc2cc(N[C@@H](C(N)=O)C(C)C)cnc2C(N)=O)sn1` [Example 33, (R)-5-(1-amino-3-methyl-1-oxobutan-2-ylamino)-3-(3-ethylisothiazol-5-ylamino)picolinamide] the IC50 was 0.01 to 0.1 µM. `NC(=O)c1ncc(N[C@@H]2CCCC[C@@H]2N)cc1Nc1cnc2ccccc2c1` [Example 13, 5-((1R,2S)-2-aminocyclohexylamino)-3-(quinolin-3-ylamino)picolinamide] was tested, and the IC50 was 0.1 to 1 µM. Work on `NC(=O)c1ncc(N[C@@H]2CCCC[C@@H]2N)cc1Nc1cnsc1` [Example 28, 5-((1R,2S)-2-aminocyclohexylamino)-3-(isothiazol-4-ylamino)picolinamide] yielded an IC50 of 0.1 to 1 µM. `NC(=O)c1ncc(N[C@@H]2CCCC[C@@H]2N)cc1Nc1cc(-c2ccncc2)no1` [Example 49, 5-((1R,2S)-2-aminocyclohexylamino)-3-(3-(pyridin-4-yl)isoxazol-5-ylamino)picolinamide] showed an IC50 of 0.001 to 0.01 µM. `CC(C)C[C@@H](Nc1cnc(C(N)=O)c(Nc2ccc3cnccc3c2)c1)C(N)=O` [Example 17, (R)-5-(1-amino-4-methyl-1-oxopentan-2-ylamino)-3-(isoquinolin-6-ylamino)picolinamide] gave an IC50 of 0.01 to 0.1 µM. With `NC(=O)c1ncc(N[C@@H]2CCCC(F)(F)[C@@H]2N)cc1Nc1cc(-c2ccccc2)no1` [Example 9, 5-((1R,2R)-2-amino-3,3-difluorocyclohexylamino)-3-(3-phenylisoxazol-5-ylamino)picolinamide] the IC50 was 0.1 to 1 µM. Molecule `NC(=O)c1ncc(N[C@@H]2CCCC[C@@H]2N)cc1Nc1ccc2ccncc2c1` [Example 14, 5-((1R,2S)-2-aminocyclohexylamino)-3-(isoquinolin-7-ylamino)picolinamide] has an IC50 of 0.01 to 0.1 µM. For `NC(=O)c1ncc(N[C@@H]2CCCC[C@@H]2N)cc1Nc1ccc2cnccc2c1` [Example 12, 5-((1R,2S)-2-aminocyclohexylamino)-3-(isoquinolin-6-ylamino)picolinamide], the IC50 was 0.01 to 0.1 µM. `Cc1cc(Nc2cc(NC3(C(N)=O)CC3)cnc2C(N)=O)sn1` [Example 32, 5-(1-carbamoylcyclopropylamino)-3-(3-methylisothiazol-5-ylamino)picolinamide] showed an IC50 of 0.001 to 0.01 µM.
